Common to all, as to assay type: functional
In assay [1] the test system is Col2. The experiment in a line: Growth inhibition of human Col2 cells xenografted in NCr nu/nu mouse at 6.25 to 25 mg/kg, sc once daily administered from day 3 to 6 after implantation measured on day 7 by MTT-based hollow-fiber test. The note with it: route subcutaneous. A general note: Xenograft models place foreign cells or tissue in a host animal.
Assay [2] has as its system KB. The experiment in a line: Growth inhibition of human KB cells xenografted in NCr nu/nu mouse at 6.25 to 25 mg/kg, ip once daily administered from day 3 to 6 after implantation measured on day 7 by MTT-based hollow-fiber test. The note with it: route intraperitoneal.
Assay [3] deals with LNCaP. The experiment in a line: Growth inhibition of human LNCAP cells xenografted in NCr nu/nu mouse at 6.25 to 25 mg/kg, sc once daily administered from day 3 to 6 after implantation measured on day 7 by MTT-based hollow-fiber test. To be noted: route subcutaneous.
In assay [4] the test system is LNCaP. The experiment in a line: Growth inhibition of human LNCAP cells xenografted in ip dosed NCr nu/nu mouse administered once daily from day 3 to 6 after implantation measured on day 7 by MTT-based hollow-fiber test.
Assay [5] has as its system KB. As to the kind of experiment: Growth inhibition of human KB cells xenografted in NCr nu/nu mouse at 6.25 to 25 mg/kg, sc once daily administered from day 3 to 6 after implantation measured on day 7 by MTT-based hollow-fiber test. To be noted: route subcutaneous.
Assay [6] deals with LNCaP. As to the kind of experiment: Growth inhibition of human LNCAP cells xenografted in NCr nu/nu mouse at 6.25 to 25 mg/kg, ip once daily administered from day 3 to 6 after implantation measured on day 7 by MTT-based hollow-fiber test. To be noted: route intraperitoneal.
Assay [7] relates to Col2. As to the kind of experiment: Growth inhibition of human Col2 cells xenografted in NCr nu/nu mouse at 6.25 to 25 mg/kg, ip once daily administered from day 3 to 6 after implantation measured on day 7 by MTT-based hollow-fiber test. The note with it: route intraperitoneal.
In assay [8] the test system is Col2. The experiment in a line: Growth inhibition of human Col2 cells xenografted in ip dosed NCr nu/nu mouse administered once daily from day 3 to 6 after implantation measured on day 7 by MTT-based hollow-fiber test.
The subject of assay [9] is KB. The experiment in a line: Growth inhibition of human KB cells xenografted in NCr nu/nu mouse at 6.2 to 25 mg/kg, ip once daily administered from day 3 to 6 after implantation measured on day 7 by MTT-based hollow-fiber test. The note with it: route intraperitoneal.
Assay [10] deals with Lu1. As to the kind of experiment: Growth inhibition of human Lu1 cells xenografted in NCr nu/nu mouse at 6.2 to 25 mg/kg, ip once daily administered from day 3 to 6 after implantation measured on day 7 by MTT-based hollow-fiber test. To be noted: dose mg/kg 3-6; route intraperitoneal.
Assay [11] relates to Lu1. The experiment in a line: Growth inhibition of human Lu1 cells xenografted in NCr nu/nu mouse at 6.2 to 25 mg/kg, sc once daily administered from day 3 to 6 after implantation measured on day 7 by MTT-based hollow-fiber test. The note with it: dose mg/kg 3-6; route subcutaneous.
The test system of assay [12] is LNCaP. As to the kind of experiment: Growth inhibition of human LNCAP cells xenografted in NCr nu/nu mouse at 6.2 to 25 mg/kg, sc once daily administered from day 3 to 6 after implantation measured on day 7 by MTT-based hollow-fiber test. The note with it: route subcutaneous.
Assay [13] relates to LNCaP. As to the kind of experiment: Growth inhibition of human LNCAP cells xenografted in NCr nu/nu mouse at 6.2 to 25 mg/kg, ip once daily administered from day 3 to 6 after implantation measured on day 7 by MTT-based hollow-fiber test. To be noted: route intraperitoneal.
The subject of assay [14] is KB. The experiment in a line: Growth inhibition of human KB cells xenografted in NCr nu/nu mouse at 6.2 to 25 mg/kg, sc once daily administered from day 3 to 6 after implantation measured on day 7 by MTT-based hollow-fiber test. The note with it: route subcutaneous.
The test system of assay [15] is Lu1. As to the kind of experiment: Growth inhibition of human Lu1 cells xenografted in ip dosed NCr nu/nu mouse administered once daily from day 3 to 6 after implantation measured on day 7 by MTT-based hollow-fiber test.
Assay [16] concerns SW626. The experiment in a line: Growth inhibition of human SW626 cells xenografted in NCr nu/nu mouse at 3.75 to 30 mg/kg, sc once daily administered from day 3 to 6 after implantation measured on day 7 by MTT-based hollow-fiber test. To be noted: dose mg/kg 3-6; route subcutaneous.
Assay [17] relates to SW626. The experiment in a line: Growth inhibition of human SW626 cells xenografted in ip dosed NCr nu/nu mouse administered once daily from day 3 to 6 after implantation measured on day 7 by MTT-based hollow-fiber test.
Assay [18] relates to KB. As to the kind of experiment: Growth inhibition of human KB cells xenografted in NCr nu/nu mouse at 3.75 to 30 mg/kg, sc once daily administered from day 3 to 6 after implantation measured on day 7 by MTT-based hollow-fiber test. To be noted: route subcutaneous.
Assay [19] concerns KB. The experiment in a line: Growth inhibition of human KB cells xenografted in NCr nu/nu mouse at 3.75 to 30 mg/kg, ip once daily administered from day 3 to 6 after implantation measured on day 7 by MTT-based hollow-fiber test. The note with it: route intraperitoneal.
For assay [20], the system named is SW626. As to the kind of experiment: Growth inhibition of human SW626 cells xenografted in NCr nu/nu mouse at 3.75 to 30 mg/kg, ip once daily administered from day 3 to 6 after implantation measured on day 7 by MTT-based hollow-fiber test. To be noted: dose mg/kg 3-6; route intraperitoneal.

SMILES strings stand for the structures.

In the case of `CC(=O)O[C@H]1O[C@H]([C@@H]2c3cccc(O)c3C(=O)c3c(O)cc(C)cc32)[C@H](O)[C@@H](OC(=O)C=C(C)C)[C@H]1O` [ALVARADOIN G], the “growth inhibition (GI)” value in the assay with Col2 [1] is 0%; in the assay with KB [2], 79%; in the assay with LNCaP [3] it was 24%; in the assay on KB [5], 13%; with LNCaP [6], 52%; with Col2 [7] it was 84%. The figures for the ED50 in the assay on LNCaP [4] and in the assay on Col2 [8] were 290 nM and 1300 nM, respectively.

For the compound `C[C@@H]1CC[C@@]2(OC1)O[C@H]1C[C@H]3[C@@H]4CC=C5C[C@@H](O[C@@H]6O[C@H](CO)[C@@H](O[C@@H]7O[C@@H](C)[C@H](O)[C@@H](O)[C@H]7O)[C@H](O)[C@H]6O[C@@H]6O[C@@H](C)[C@H](O)[C@@H](O)[C@H]6O)CC[C@]5(C)[C@H]4CC[C@]3(C)[C@H]1[C@@H]2C` [DIOSCIN], the “growth inhibition (GI)” value in the assay on KB [9] was 79%; in the assay with Lu1 [10] it was 25%; in the assay on Lu1 [11], 0%; in the assay with LNCaP [12], 36%; in the assay with LNCaP [13], 37%; in the assay on KB [14], 4%. Further, the ED50 in the assay with LNCaP [4] was 1700 nM; in the assay on Lu1 [15], 1200 nM.

For the compound `CC(=O)O[C@H]1C(=O)[C@@]2(C)[C@H]([C@H](OC(=O)c3ccccc3)[C@]3(O)C[C@H](OC(=O)[C@H](O)[C@@H](NC(=O)c4ccccc4)c4ccccc4)C(C)=C1C3(C)C)[C@]1(OC(C)=O)CO[C@@H]1C[C@@H]2O` [PACLITAXEL], the “growth inhibition (GI)” value in the assay on SW626 [16] is 0%; with KB [18] it was 20%; with KB [19] it was 70%; in the assay on SW626 [20], 98%. The compound further registered an ED50 with SW626 [17] of 0.012 nM.

The record behind these values is ChEMBL document CHEMBL1152339, “Use of the in vivo hollow fiber assay in natural products anticancer drug discovery” (J Nat Prod, 2009).
